From patent publication US7517874B2 (priority 2007, dated 2009)
Like-named read-outs stand apart in the source and are kept apart here.

Legend:
rat CB2 receptor (rCB2) = target: T1, rat CB2 receptor (rCB2) (Rattus norvegicus, UniProt Q9QZN9); assay: cell-based; type: cell-based; conditions: for +/− RCB2: agonist or inverse agonist at rCB2
T1 sequence (Q9QZN9 1-360): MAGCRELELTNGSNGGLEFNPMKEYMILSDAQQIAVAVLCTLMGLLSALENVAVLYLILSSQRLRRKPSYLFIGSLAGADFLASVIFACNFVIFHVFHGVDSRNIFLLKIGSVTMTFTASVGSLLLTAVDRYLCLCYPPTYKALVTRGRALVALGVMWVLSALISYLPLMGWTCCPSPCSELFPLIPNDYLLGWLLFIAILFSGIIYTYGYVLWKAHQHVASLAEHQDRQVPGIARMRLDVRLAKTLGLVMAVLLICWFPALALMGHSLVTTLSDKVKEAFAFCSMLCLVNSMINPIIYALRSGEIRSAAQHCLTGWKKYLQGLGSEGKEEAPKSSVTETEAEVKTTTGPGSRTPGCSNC
Method in brief: (§1)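 Agonism or inverse agonism was assessed as change in intracellular cAMP in CHO-K1 cells expressing human CB1 or rat CB2 (genomic DNA, pcDNA3.1).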

[1] = target: human CB1 receptor (hCB1) (Homo sapiens, UniProt P21554); assay: cell-based; type: cell-based; conditions: for +/− HCB1: agonist or inverse agonist at hCB1
Method in brief: as §1

human CB1 receptor (hCB1), sequence (P21554 whole entry): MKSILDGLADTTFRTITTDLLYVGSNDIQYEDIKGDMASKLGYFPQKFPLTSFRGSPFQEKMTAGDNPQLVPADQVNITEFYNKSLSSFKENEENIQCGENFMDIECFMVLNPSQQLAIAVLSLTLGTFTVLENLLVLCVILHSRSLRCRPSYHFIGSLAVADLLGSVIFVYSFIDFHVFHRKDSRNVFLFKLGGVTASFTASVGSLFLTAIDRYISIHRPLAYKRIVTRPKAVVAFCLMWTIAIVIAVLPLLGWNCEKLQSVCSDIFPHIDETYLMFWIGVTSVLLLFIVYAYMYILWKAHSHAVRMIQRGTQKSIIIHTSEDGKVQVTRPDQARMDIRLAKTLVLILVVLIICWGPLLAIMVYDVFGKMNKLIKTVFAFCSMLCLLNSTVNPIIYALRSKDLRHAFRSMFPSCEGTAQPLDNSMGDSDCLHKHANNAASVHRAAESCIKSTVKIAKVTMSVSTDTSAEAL

Row | SMILES | +/− RCB2 (rat CB2 receptor (rCB2)) | +/− HCB1 [1] | EC50 (rat CB2 receptor (rCB2)) | EC50 [1] | EC50 ([1]; groups >100 nM-10 μM and >10 μM, cAMP, CHO-K1 hCB1, read-out: EC50 HCB1)
1 | CN1CCCn2c(-c3cc(F)c(F)cc3F)nc(C(=O)N[C@H](C(N)=O)C(C)(C)C)c2C1 [Compound 579, (S)-N-(1-amino-3,3-dimethyl-1-oxobutan-2-yl)-8-methyl-3-(2,4,5-trifluorophenyl)-6,7,8,9-tetrahydro-5H-imidazo[1,5-a][1,4]diazepine-1-carboxamide] | + | + |  |  | 
2 | CNC(=O)[C@@H](NC(=O)c1nc(C2=CCNCC2)n2c1CN(C)CCC2)C(C)(C)C [Compound 460, (S)-N-(3,3-dimethyl-1-(methylamino)-1-oxobutan-2-yl)-8-methyl-3-(1,2,3,6-tetrahydropyridin-4-yl)-6,7,8,9-tetrahydro-5H-imidazo[1,5-a][1,4]diazepine-1-carboxamide] | + | + |  |  | 
3 | CNC(=O)[C@H](CC(C)(C)C)NC(=O)c1nc(-c2cc(F)ccc2F)n2c1CN(C)CCC2 [Compound 553, (S)-3-(2,5-difluorophenyl)-N-(4,4-dimethyl-1-(methylamino)-1-oxopentan-2-yl)-8-methyl-6,7,8,9-tetrahydro-5H-imidazo[1,5-a][1,4]diazepine-1-carboxamide] |  |  | > 10 µM | > 10000 nM | 
4 | CNC(=O)[C@@H](NC(=O)c1nc(-c2ccc(C(=O)N(C)C)cc2)n2c1CN(C)CCC2)C(C)(C)C [Compound 394, (S)-N-(3,3-dimethyl-1-(methylamino)-1-oxobutan-2-yl)-3-(4-(dimethylcarbamoyl)phenyl)-8-methyl-6,7,8,9-tetrahydro-5H-imidazo[1,5-a][1,4]diazepine-1-carboxamide] | − |  |  | > 10000 nM | 
5 | CNC(=O)[C@@H](NC(=O)c1nc(-c2ccc(C)cc2F)n2c1CN(C)CCC2)C(C)(C)C [Compound 340, (S)-N-(3,3-dimethyl-1-(methylamino)-1-oxobutan-2-yl)-3-(2-fluoro-4-methylphenyl)-8-methyl-6,7,8,9-tetrahydro-5H-imidazo[1,5-a][1,4]diazepine-1-carboxamide] | + |  |  | > 10000 nM | 
6 | Cc1cnc(CNC(=O)c2nc(-c3ccccc3)n3c2CN(C)CC3)cn1 [Compound 237, 7-methyl-N-((5-methylpyrazin-2-yl)methyl)-3-phenyl-5,6,7,8-tetrahydroimidazo[1,5-a]pyrazine-1-carboxamide] |  |  | > 10 µM | > 10000 nM | 
7 | CN1CCCn2c(-c3ccccc3)nc(C(=O)N[C@H](C(=O)NC3CCC3)C(C)(C)C)c2C1 [Compound 480, (S)-N-(1-(cyclobutylamino)-3,3-dimethyl-1-oxobutan-2-yl)-8-methyl-3-phenyl-6,7,8,9-tetrahydro-5H-imidazo[1,5-a][1,4]diazepine-1-carboxamide] |  |  | > 10 µM | > 10000 nM | 
8 | C[C@H](NC(=O)c1nc(-c2ccccc2)n2c1CN(C(=O)c1ccccc1)CC2)c1ccccc1 [Compound 125, (S)-7-benzoyl-3-phenyl-N-(1-phenylethyl)-5,6,7,8-tetrahydroimidazo[1,5-a]pyrazine-1-carboxamide] | − |  |  | > 10000 nM | 
9 | CNC(=O)[C@@H](NC(=O)c1nc(Cl)n2c1CNCCC2)C(C)(C)C [Compound 597, (S)-3-chloro-N-(3,3-dimethyl-1-(methylamino)-1-oxobutan-2-yl)-6,7,8,9-tetrahydro-5H-imidazo[1,5-a][1,4]diazepine-1-carboxamide] | + |  |  | > 10000 nM | 
10 | CNC(=O)[C@@H](NC(=O)c1nc(-c2ccc(F)cc2Cl)n2c1CN(C)CCC2)C(C)(C)C [Compound 337, (S)-3-(2-chloro-4-fluorophenyl)-N-(3,3-dimethyl-1-(methylamino)-1-oxobutan-2-yl)-8-methyl-6,7,8,9-tetrahydro-5H-imidazo[1,5-a][1,4]diazepine-1-carboxamide] | + |  |  | > 10000 nM | 
11 | CNC(=O)[C@@H](NC(=O)c1nc(-c2ccc(C(=O)N3CCOCC3)cc2)n2c1CN(C)CCC2)C(C)(C)C [Compound 401, (S)-N-(3,3-dimethyl-1-(methylamino)-1-oxobutan-2-yl)-8-methyl-3-(4-(morpholine-4-carbonyl)phenyl)-6,7,8,9-tetrahydro-5H-imidazo[1,5-a][1,4]diazepine-1-carboxamide] |  |  | > 10 µM | > 10000 nM | 
12 | CCN1CCn2c(-c3ccccc3)nc(C(=O)N[C@@H](C)c3ccccc3)c2C1 [Compound 147, (S)-7-ethyl-3-phenyl-N-(1-phenylethyl)-5,6,7,8-tetrahydroimidazo[1,5-a]pyrazine-1-carboxamide] | − |  |  | > 10000 nM | 
13 | CC(C)=CC(=O)c1nc(-c2ccccc2)n2c1CN(C)CC2 [Compound 293, 3-methyl-1-(7-methyl-3-phenyl-5,6,7,8-tetrahydroimidazo[1,5-a]pyrazin-1-yl)but-2-en-1-one] | − |  |  |  | > 10000 nM
14 | CNC(=O)[C@@H](NC(=O)c1nc(-c2ccccc2)n2c1CN(C(=O)OC(C)(C)C)CC2)C(C)(C)C [Compound 1, (S)-tert-butyl 1-(3,3-dimethyl-1-(methylamino)-1-oxobutan-2-ylcarbamoyl)-3-phenyl-5,6-dihydroimidazo[1,5-a]pyrazine-7(8H)-carboxylate] | − |  |  | > 10000 nM | 
15 | CNC(=O)[C@@H](NC(=O)c1nc(/C=C/C2CC2)n2c1CN(C)CCC2)C(C)(C)C [Compound 436, (S,E)-3-(2-cyclopropylvinyl)-N-(3,3-dimethyl-1-(methylamino)-1-oxobutan-2-yl)-8-methyl-6,7,8,9-tetrahydro-5H-imidazo[1,5-a][1,4]diazepine-1-carboxamide] | + | + |  |  | 
16 | CN1CCn2c(-c3ccc(Cl)cc3F)nc(C(=O)N3CCC(N4C(=O)Cc5ccccc54)CC3)c2C1 [Compound 222, 1-(1-(3-(4-chloro-2-fluorophenyl)-7-methyl-5,6,7,8-tetrahydroimidazo[1,5-a]pyrazine-1-carbonyl)piperidin-4-yl)indolin-2-one] |  |  | > 10 µM | > 10000 nM | 
17 | CNC(=O)[C@@H](NC(=O)c1nc(-c2ccccc2)n2c1CN(C(=O)CC(C)(C)C)CC2)C(C)(C)C [Compound 188, (S)-N-(3,3-dimethyl-1-(methylamino)-1-oxobutan-2-yl)-7-(3,3-dimethylbutanoyl)-3-phenyl-5,6,7,8-tetrahydroimidazo[1,5-a]pyrazine-1-carboxamide] | − |  |  | > 10000 nM | 
18 | C=C(c1ccccc1)c1nc(C(=O)N[C@H](C(=O)NC)C(C)(C)C)c2n1CCCN(C)C2 [Compound 455, (S)-N-(3,3-dimethyl-1-(methylamino)-1-oxobutan-2-yl)-8-methyl-3-(1-phenylvinyl)-6,7,8,9-tetrahydro-5H-imidazo[1,5-a][1,4]diazepine-1-carboxamide] | + |  |  | > 10000 nM | 
19 | CNC(=O)[C@@H](NC(=O)c1nc(-c2ccc(F)c(OC)c2)n2c1CN(C)CCC2)C(C)(C)C [Compound 393, (S)-N-(3,3-dimethyl-1-(methylamino)-1-oxobutan-2-yl)-3-(4-fluoro-3-methoxyphenyl)-8-methyl-6,7,8,9-tetrahydro-5H-imidazo[1,5-a][1,4]diazepine-1-carboxamide] | + |  |  | > 10000 nM | 
20 | CNC(=O)[C@@H](NC(=O)c1nc(-c2cccc(Cl)c2)n2c1CN(C)CCC2)C(C)(C)C [Compound 433, (S)-3-(3-chlorophenyl)-N-(3,3-dimethyl-1-(methylamino)-1-oxobutan-2-yl)-8-methyl-6,7,8,9-tetrahydro-5H-imidazo[1,5-a][1,4]diazepine-1-carboxamide] |  |  | > 10 µM | > 10000 nM | 
21 | CNC(=O)[C@@H](NC(=O)c1nc(-c2c(F)cccc2F)n2c1CN(C)CCC2)C(C)(C)C [Compound 601, (S)-3-(2,6-difluorophenyl)-N-(3,3-dimethyl-1-(methylamino)-1-oxobutan-2-yl)-8-methyl-6,7,8,9-tetrahydro-5H-imidazo[1,5-a][1,4]diazepine-1-carboxamide] | + | + |  |  | 
22 | CNC(=O)[C@@H](NC(=O)c1nc(/C=C/COC)n2c1CN(C)CC2)C(C)(C)C [Compound 264, (S,E)-N-(3,3-dimethyl-1-(methylamino)-1-oxobutan-2-yl)-3-(3-methoxyprop-1-enyl)-7-methyl-5,6,7,8-tetrahydroimidazo[1,5-a]pyrazine-1-carboxamide] | + |  |  | > 10000 nM | 
23 | CC(C)CNC(=O)[C@@H](NC(=O)c1nc(-c2ccccc2)n2c1CN(C)CCC2)C(C)(C)C [Compound 474, (S)-N-(1-(isobutylamino)-3,3-dimethyl-1-oxobutan-2-yl)-8-methyl-3-phenyl-6,7,8,9-tetrahydro-5H-imidazo[1,5-a][1,4]diazepine-1-carboxamide] | + |  |  | > 10000 nM | 
24 | CNC(=O)[C@H](CC(C)(C)C)NC(=O)c1nc(-c2cc(F)c(F)cc2F)n2c1CN(C)CCC2 [Compound 555, (S)-N-(4,4-dimethyl-1-(methylamino)-1-oxopentan-2-yl)-8-methyl-3-(2,4,5-trifluorophenyl)-6,7,8,9-tetrahydro-5H-imidazo[1,5-a][1,4]diazepine-1-carboxamide] | + | + |  |  | 
25 | CN1CCCn2c(-c3ccc(Cl)c(F)c3)nc(C(=O)N[C@@H](CC(C)(C)C)C(N)=O)c2C1 [Compound 588, (S)-N-(1-amino-4,4-dimethyl-1-oxopentan-2-yl)-3-(4-chloro-3-fluorophenyl)-8-methyl-6,7,8,9-tetrahydro-5H-imidazo[1,5-a][1,4]diazepine-1-carboxamide] | + | + |  |  | 
